Test system: human skin tissue
Experiment: Penetration rate of AI compound in AI-helper composition through human skin in vitro, modified Franz cells
Format: in vitro ADME
Conditions: for Skin penetration rate of alpha-lipoic acid: 20° C.; for Skin penetration rate of Al compound: Al compound 0.5% w/v; for Skin penetration rate of Al compound / Skin penetration rate of AI compound: 25 °C
Procedure: Penetration rate of AI compound in the AI-helper composition through human skin were measured in vitro by modified Franz cells. A Franz cell had two chambers: the top sample chamber and the bottom receiving chamber. The human skin tissue (450-500 μm thick) that separated the top and the receiving chambers was isolated from the anterior or posterior thigh areas.

[1] = 2-(Diethylamino)ethyl 2-(4-isobutylphenyl)propionate hydrochloride 6% w/v, water
[2] = D-Phenylalanine isopropyl ester hydrochloride 6% w/v, water
[3] = Dialkylaminoalkyl 2-(4-isobutylphenyl)propionate: None
[4] = L-Phenylalanine isopropyl ester hydrochloride 6% w/v, water
[5] = no isoleucine ester (None), AI compound 0.5 % w/v in water
[6] = no leucine ester (None), AI compound 0.5 % w/v in water
[7] = no tryptophan ester (None), AI compound 0.5 % w/v in water
[8] = with D-isoleucine isopropyl ester hydrochloride 6 % w/v in water, AI compound 0.5 % w/v
[9] = with D-leucine isopropyl ester hydrochloride 6 % w/v in water, AI compound 0.5 % w/v
[10] = with D-tryptophan isopropyl ester hydrochloride 6 % w/v in water, AI compound 0.5 % w/v
[11] = with L-isoleucine isopropyl ester hydrochloride 6 % w/v in water, AI compound 0.5 % w/v
[12] = with L-leucine isopropyl ester hydrochloride 6 % w/v in water, AI compound 0.5 % w/v
[13] = with L-tryptophan isopropyl ester hydrochloride 6 % w/v in water, AI compound 0.5 % w/v

| Skin penetration rate of Al compound [1] [μg/cm^2/h] | Skin penetration rate of Al compound [2] [μg/cm^2/h] | Skin penetration rate of Al compound [3] [μg/cm^2/h] | Skin penetration rate of Al compound [4] [μg/cm^2/h] | Skin penetration rate of Al compound (Phenylalanine ester: None) [μg/cm^2/h] | Skin penetration rate of AI compound [5] [μg/cm^2/h] | Skin penetration rate of AI compound [6] [μg/cm^2/h] | Skin penetration rate of AI compound [7] [μg/cm^2/h] | Skin penetration rate of AI compound [8] [μg/cm^2/h] | Skin penetration rate of AI compound [9] [μg/cm^2/h] | Skin penetration rate of AI compound [10] [μg/cm^2/h] | Skin penetration rate of AI compound [11] [μg/cm^2/h] | Skin penetration rate of AI compound [12] [μg/cm^2/h] | Skin penetration rate of AI compound [13] [μg/cm^2/h] | Structure (SMILES) | also measured |
| --- | --- | --- | --- | --- | --- | --- | --- | --- | --- | --- | --- | --- | --- | --- | --- |
| 16.356 ± 3.011 | 17.526 ± 2.451 | 0.012 ± 0.010 | 17.358 ± 2.259 | 0.016 ± 0.009 | 0.013 ± 0.011 | 0.011 ± 0.008 | 0.008 ± 0.013 | 14.581 ± 2.183 | 14.121 ± 2.131 | 18.126 ± 3.451 | 14.698 ± 2.321 | 14.128 ± 2.119 | 17.978 ± 3.479 | N[C@@H](CCC(=O)N[C@@H](CS)C(=O)NCC(=O)O)C(=O)O [Glutathione] |  |
| 18.568 ± 3.112 | 18.745 ± 3.112 | 0.015 ± 0.011 | 18.978 ± 2.135 | 0.015 ± 0.011 | 0.016 ± 0.010 | 0.013 ± 0.011 | 0.017 ± 0.021 |  | 16.028 ± 2.862 | 20.728 ± 3.962 | 16.236 ± 2.805 | 16.126 ± 3.005 | 20.177 ± 3.195 | Oc1ccc(C=Cc2cc(O)cc(O)c2)cc1 [Resveratrol] |  |
| 8.711 ± 1.871 | 8.339 ± 2.178 | 0.012 ± 0.006 | 8.372 ± 2.237 | 0.011 ± 0.006 | 0.009 ± 0.007 | 0.008 ± 0.009 | 0.005 ± 0.008 | 7.521 ± 2.312 | 7.231 ± 2.386 | 9.131 ± 2.321 | 7.247 ± 2.076 | 7.175 ± 2.257 | 9.172 ± 2.117 | NCCS(=O)(=O)O [Taurine] |  |
|  | 16.531 ± 2.106 | 0.023 ± 0.027 | 16.751 ± 2.012 | 0.057 ± 0.011 | 0.022 ± 0.017 | 0.029 ± 0.035 | 0.059 ± 0.031 | 13.468 ± 2.211 |  | 17.131 ± 2.332 | 13.632 ± 2.125 |  | 17.251 ± 2.415 | Cc1ncc(CO)c(CO)c1O.Cl [Vitamin B6] |  |

The remaining lines, values behind:

| Structure (SMILES) | Skin penetration rate of Al compound [1] [μg/cm^2/h] | Skin penetration rate of Al compound [2] [μg/cm^2/h] | Skin penetration rate of Al compound [3] [μg/cm^2/h] | Skin penetration rate of Al compound [4] [μg/cm^2/h] | Skin penetration rate of Al compound (Phenylalanine ester: None) [μg/cm^2/h] | Skin penetration rate of AI compound [5] [μg/cm^2/h] | Skin penetration rate of AI compound [6] [μg/cm^2/h] | Skin penetration rate of AI compound [7] [μg/cm^2/h] | Skin penetration rate of AI compound [8] [μg/cm^2/h] | Skin penetration rate of AI compound [9] [μg/cm^2/h] | Skin penetration rate of AI compound [10] [μg/cm^2/h] | Skin penetration rate of AI compound [11] [μg/cm^2/h] | Skin penetration rate of AI compound [12] [μg/cm^2/h] | Skin penetration rate of AI compound [13] [μg/cm^2/h] | also measured |
| --- | --- | --- | --- | --- | --- | --- | --- | --- | --- | --- | --- | --- | --- | --- | --- |
| O=C(O)CCCCC1CCSS1 (stereo not drawn) [Alpha-lipoic acid] | 30.478 ± 2.982 | 31.796 ± 3.176 | 0.056 ± 0.032 | 32.878 ± 3.568 | 0.058 ± 0.047 | 0.057 ± 0.036 | 0.051 ± 0.023 | 0.071 ± 0.063 | 28.013 ± 2.078 | 27.476 ± 2.116 | 35.456 ± 2.476 | 28.897 ± 2.126 | 28.377 ± 2.378 | 36.378 ± 2.978 | Skin penetration rate of alpha-lipoic acid (0.5% alpha-lipoic acid without helper esters): 0.071 ± 0.063 μg/cm^2/h; Skin penetration rate of alpha-lipoic acid (alpha-lipoic acid 0.5% w/v, Tryptophan isopropyl ester•HA 6% w/v, HA = 1/2H2SO4, water): 33.928 ± 2.876 μg/cm^2/h; Skin penetration rate of alpha-lipoic acid (alpha-lipoic acid 0.5% w/v, Tryptophan isopropyl ester•HA 6% w/v, HA = 1/3H3PO4, water): 34.321 ± 2.867 μg/cm^2/h; Skin penetration rate of alpha-lipoic acid (alpha-lipoic acid 0.5% w/v, Tryptophan isopropyl ester•HA 6% w/v, HA = 2/3H3PO4, water): 34.691 ± 3.511 μg/cm^2/h; Skin penetration rate of alpha-lipoic acid (alpha-lipoic acid 0.5% w/v, Tryptophan isopropyl ester•HA 6% w/v, HA = Acetic acid, water): 35.006 ± 2.892 μg/cm^2/h; Skin penetration rate of alpha-lipoic acid (alpha-lipoic acid 0.5% w/v, Tryptophan isopropyl ester•HA 6% w/v, HA = Benzoic acid, water): 34.665 ± 3.019 μg/cm^2/h; Skin penetration rate of alpha-lipoic acid (alpha-lipoic acid 0.5% w/v, Tryptophan isopropyl ester•HA 6% w/v, HA = Butyric acid, water): 35.178 ± 3.598 μg/cm^2/h; Skin penetration rate of alpha-lipoic acid (alpha-lipoic acid 0.5% w/v, Tryptophan isopropyl ester•HA 6% w/v, HA = Citric acid, water): 35.371 ± 3.587 μg/cm^2/h; Skin penetration rate of alpha-lipoic acid (alpha-lipoic acid 0.5% w/v, Tryptophan isopropyl ester•HA 6% w/v, HA = H2SO4, water): 33.780 ± 2.891 μg/cm^2/h; Skin penetration rate of alpha-lipoic acid (alpha-lipoic acid 0.5% w/v, Tryptophan isopropyl ester•HA 6% w/v, HA = HBr, water): 35.211 ± 3.285 μg/cm^2/h; Skin penetration rate of alpha-lipoic acid (alpha-lipoic acid 0.5% w/v, Tryptophan isopropyl ester•HA 6% w/v, HA = HCl, water): 35.456 ± 2.476 μg/cm^2/h; Skin penetration rate of alpha-lipoic acid (alpha-lipoic acid 0.5% w/v, Tryptophan isopropyl ester•HA 6% w/v, HA = HF, water): 34.673 ± 3.156 μg/cm^2/h; Skin penetration rate of alpha-lipoic acid (alpha-lipoic acid 0.5% w/v, Tryptophan isopropyl ester•HA 6% w/v, HA = HI, water): 34.467 ± 2.583 μg/cm^2/h; Skin penetration rate of alpha-lipoic acid (alpha-lipoic acid 0.5% w/v, Tryptophan isopropyl ester•HA 6% w/v, HA = Lactic acid, water): 35.007 ± 2.879 μg/cm^2/h |
| CC1=C(/C=C/C(C)=C/C=C/C(C)=C/C=C/C=C(C)/C=C/C=C(C)/C=C/C2=C(C)C(=O)[C@@H](O)CC2(C)C)C(C)(C)C[C@H](O)C1=O [Astaxanthin] | 12.331 ± 2.182 | 12.431 ± 2.178 | 0.019 ± 0.010 | 12.341 ± 2.042 | 0.019 ± 0.011 | 0.013 ± 0.009 | 0.010 ± 0.008 | 0.012 ± 0.013 | 11.354 ± 2.452 | 11.134 ± 2.183 |  | 11.431 ± 2.312 | 11.251 ± 2.112 |  |  |
| CC1=C(/C=C/C(C)=C/C=C/C(C)=C/C=C/C=C(C)/C=C/C=C(C)/C=C/C2=C(C)CCCC2(C)C)C(C)(C)CCC1 [Beta Carotene] | 10.138 ± 2.381 | 10.658 ± 2.003 | 0.015 ± 0.011 | 10.772 ± 2.174 | 0.019 ± 0.008 | 0.015 ± 0.007 | 0.012 ± 0.011 | 0.009 ± 0.013 | 9.471 ± 2.323 | 9.501 ± 2.763 | 11.598 ± 2.173 | 9.412 ± 2.781 | 9.252 ± 2.321 | 11.372 ± 2.326 |  |
| Nc1nc2ncc(CNc3ccc(C(=O)N[C@@H](CCC(=O)O)C(=O)O)cc3)nc2c(=O)[nH]1 [Folic acid] | 6.235 ± 1.356 | 6.771 ± 2.872 | 0.012 ± 0.007 | 6.757 ± 3.012 | 0.012 ± 0.007 | 0.012 ± 0.007 | 0.007 ± 0.012 | 0.009 ± 0.011 | 5.598 ± 2.812 | 5.523 ± 3.012 | 6.725 ± 3.327 | 5.793 ± 3.116 | 5.786 ± 3.162 | 6.915 ± 3.452 |  |
